Several values for one entry are separate records, joined by “and”; a condition that tells them apart may be missing. Equal values may be shown once. Toxic doses and inconclusive results are not listed. No stated cut-off is given here; in the data, active means T/C of 150% or more; inactive means T/C below 125%.
System: L1210 leukemia ip in BDF1 mice, survival T/C
Assay: NCI In Vivo Anticancer Drug Screen. Data for tumor model L1210 Leukemia (intraperitoneal) in B6D2F1 (BDF1) mice
Conditions: higher = longer survival
Procedure, shortened: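 Transplanted-tumor mice were given test agent; controls received vehicle only. Survival readings from the two groups were divided (treated over control).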

[1] = endpoint: mean survival time, dose: 50.0 mg/kg/injection, schedule: Q01DX001 (ip), vehicle: carboxymethylcellulose (CMC)
[2] = endpoint: mean survival time, dose: 100.0 mg/kg/injection, schedule: Q01DX001 (ip), vehicle: carboxymethylcellulose (CMC)
[3] = endpoint: mean survival time, dose: 200.0 mg/kg/injection, schedule: Q01DX001 (ip), vehicle: carboxymethylcellulose (CMC)
[4] = endpoint: mean survival time, dose: 400.0 mg/kg/injection, schedule: Q01DX001 (ip), vehicle: carboxymethylcellulose (CMC)
[5] = endpoint: mean survival time, dose: 100.0 mg/kg/injection, schedule: Q01DX009 (ip), vehicle: saline with Tween-80
[6] = endpoint: mean survival time, dose: 200.0 mg/kg/injection, schedule: Q01DX009 (ip), vehicle: saline with Tween-80
[7] = endpoint: mean survival time, dose: 400.0 mg/kg/injection, schedule: Q01DX009 (ip), vehicle: saline with Tween-80
[8] = endpoint: mean survival time, dose: 100.0 mg/kg/injection, schedule: Q01DX001 (ip), vehicle: saline
[9] = endpoint: mean survival time, dose: 200.0 mg/kg/injection, schedule: Q01DX001 (ip), vehicle: saline
[10] = endpoint: mean survival time, dose: 400.0 mg/kg/injection, schedule: Q01DX001 (ip), vehicle: saline
[11] = endpoint: mean survival time, dose: 100.0 mg/kg/injection, schedule: Q04DX002 (ip), vehicle: saline with Tween-80
[12] = endpoint: mean survival time, dose: 200.0 mg/kg/injection, schedule: Q04DX002 (ip), vehicle: saline with Tween-80
[13] = endpoint: mean survival time, dose: 400.0 mg/kg/injection, schedule: Q04DX002 (ip), vehicle: saline with Tween-80
[14] = endpoint: mean survival time, dose: 100.0 mg/kg/injection, schedule: Q01DX009 (ip), vehicle: Klucel (hydroxypropylcellulose) (HPC)
[15] = endpoint: mean survival time, dose: 200.0 mg/kg/injection, schedule: Q01DX009 (ip), vehicle: Klucel (hydroxypropylcellulose) (HPC)
[16] = endpoint: mean survival time, dose: 100.0 mg/kg/injection, schedule: Q04DX003 (ip), vehicle: saline
[17] = endpoint: mean survival time, dose: 200.0 mg/kg/injection, schedule: Q04DX003 (ip), vehicle: saline
[18] = endpoint: mean survival time, dose: 100.0 mg/kg/injection, schedule: Q04DX002 (ip), vehicle: saline

Measured: T/C

CC1=C2/C=c3\[nH]/c(c(CCC(=O)NCCN)c3C)=C\c3[nH]c(c(C)c3CCC(=O)NCCN)CC3NC(CC(=N2)C1=NCCN)C(C)=C3NCCN (centres undefined)
inactive: endpoint: mean survival time, dose: 37.5 mg/kg/injection, schedule: Q01DX001 (ip), vehicle: saline 97 % of control | endpoint: mean survival time, dose: 75.0 mg/kg/injection, schedule: Q01DX001 (ip), vehicle: saline 97 % of control and 111 % of control | endpoint: mean survival time, dose: 150.0 mg/kg/injection, schedule: Q01DX001 (ip), vehicle: saline 106 % of control and 120 % of control | endpoint: mean survival time, dose: 300.0 mg/kg/injection, schedule: Q01DX001 (ip), vehicle: saline 102 % of control

CC(=Nc1ccccc1)C1=C(O)C(CC(C)C)NC1=O (centres undefined)
inactive: [1] 95 % of control | [2] 104 % of control | [3] 101 % of control | [4] 101 % of control

COC1OC2COC(c3ccccc3)OC2C(N=Cc2ccccc2)C1O (centres undefined)
inactive: [5] 97 % of control | [6] 101 % of control | [7] 98 % of control

CCCCC(=O)N/N=C\c1cccc(OCc2ccccc2)c1
inactive: [8] 107 % of control | [9] 102 % of control | [10] 109 % of control

OCCc1ccccc1
inactive: [5] 96 % of control | [6] 100 % of control | [7] 99 % of control

Cc1ccc(Cl)cc1NC(=O)NCc1cccnc1
inactive: endpoint: mean survival time, dose: 100.0 mg/kg/injection, schedule: Q01DX001 (ip), vehicle: saline with Tween-80 93 % of control | [5] 103 % of control and 91 % of control | [11] 106 % of control and 88 % of control | endpoint: mean survival time, dose: 100.0 mg/kg/injection, schedule: Q04DX003 (ip), vehicle: saline with Tween-80 107 % of control | endpoint: mean survival time, dose: 200.0 mg/kg/injection, schedule: Q01DX001 (ip), vehicle: saline with Tween-80 90 % of control | [6] 104 % of control and 92 % of control | [12] 95 % of control and 89 % of control | endpoint: mean survival time, dose: 200.0 mg/kg/injection, schedule: Q04DX003 (ip), vehicle: saline with Tween-80 100 % of control | endpoint: mean survival time, dose: 400.0 mg/kg/injection, schedule: Q01DX001 (ip), vehicle: saline with Tween-80 90 % of control | [7] 96 % of control and 113 % of control | [13] 95 % of control and 91 % of control | endpoint: mean survival time, dose: 400.0 mg/kg/injection, schedule: Q04DX003 (ip), vehicle: saline with Tween-80 103 % of control

CCOC(=O)c1[nH]c(C)c(C(=O)OCC)c1C
inactive: endpoint: mean survival time, dose: 50.0 mg/kg/injection, schedule: Q01DX009 (ip), vehicle: Klucel (hydroxypropylcellulose) (HPC) 95 % of control | [14] 95 % of control | [11] 99 % of control | [15] 103 % of control | [12] 102 % of control | [13] 102 % of control | endpoint: median survival time, dose: 10.0 mg/kg/injection, schedule: Q04DX002 (ip), vehicle: Klucel (hydroxypropylcellulose) (HPC) 100 % of control | endpoint: median survival time, dose: 200.0 mg/kg/injection, schedule: Q04DX002 (ip), vehicle: Klucel (hydroxypropylcellulose) (HPC) 89 % of control | endpoint: median survival time, dose: 400.0 mg/kg/injection, schedule: Q04DX002 (ip), vehicle: Klucel (hydroxypropylcellulose) (HPC) 107 % of control

CC(SC(C)C(=O)NN=C1CCSCC1)C(=O)NN=C1CCSCC1 (centres undefined)
inactive: endpoint: mean survival time, dose: 55.0 mg/kg/injection, schedule: Q01DX Z (ip), vehicle: methylcellulose (MC) 104 % of control | endpoint: mean survival time, dose: 83.0 mg/kg/injection, schedule: Q01DX Z (ip), vehicle: methylcellulose (MC) 91 % of control | endpoint: mean survival time, dose: 125.0 mg/kg/injection, schedule: Q01DX Z (ip), vehicle: methylcellulose (MC) 114 % of control

CC1(C)c2ccccc2N(CCCN)c2ccccc21
inactive: endpoint: mean survival time, dose: 3.25 mg/kg/injection, schedule: Q01DX001 (ip), vehicle: saline 93 % of control | endpoint: mean survival time, dose: 6.5 mg/kg/injection, schedule: Q01DX001 (ip), vehicle: saline 93 % of control | endpoint: mean survival time, dose: 13.0 mg/kg/injection, schedule: Q01DX001 (ip), vehicle: saline 96 % of control | endpoint: mean survival time, dose: 50.0 mg/kg/injection, schedule: Q01DX001 (ip), vehicle: saline 95 % of control | [8] 106 % of control

CC1(C)C2=CCCC2CC/C1=N/NC(N)=O (centres undefined)
inactive: endpoint: mean survival time, dose: 25.0 mg/kg/injection, schedule: Q04DX002 (ip), vehicle: Klucel (hydroxypropylcellulose) (HPC) 107 % of control | endpoint: mean survival time, dose: 50.0 mg/kg/injection, schedule: Q04DX002 (ip), vehicle: Klucel (hydroxypropylcellulose) (HPC) 93 % of control | endpoint: mean survival time, dose: 100.0 mg/kg/injection, schedule: Q04DX002 (ip), vehicle: Klucel (hydroxypropylcellulose) (HPC) 90 % of control

NC(=O)N1Cc2ccccc2Cc2ccccc2C1
inactive: [14] 101 % of control | [15] 92 % of control | endpoint: mean survival time, dose: 400.0 mg/kg/injection, schedule: Q01DX009 (ip), vehicle: Klucel (hydroxypropylcellulose) (HPC) 95 % of control

CCn1c2ccccc2c2cc(N=Cc3ccc(N(CCCl)CCCl)cc3C)ccc21
inactive: [1] 103 % of control | [2] 103 % of control | [3] 117 % of control | [4] 100 % of control

CCC1(C)NC(=O)NC1=O (centres undefined)
inactive: endpoint: mean survival time, dose: 50.0 mg/kg/injection, schedule: Q01DX009 (ip), vehicle: saline 100 % of control | [8] 112 % of control | endpoint: mean survival time, dose: 100.0 mg/kg/injection, schedule: Q01DX009 (ip), vehicle: saline 98 % of control | [16] 106 % of control | [9] 102 % of control | endpoint: mean survival time, dose: 200.0 mg/kg/injection, schedule: Q01DX009 (ip), vehicle: saline 111 % of control | [17] 101 % of control | [10] 100 % of control | endpoint: mean survival time, dose: 400.0 mg/kg/injection, schedule: Q01DX009 (ip), vehicle: saline 109 % of control | endpoint: mean survival time, dose: 400.0 mg/kg/injection, schedule: Q04DX003 (ip), vehicle: saline 101 % of control

CCOC(=O)Cc1nnn(C)n1
inactive: [16] 93 % of control | [17] 90 % of control

C[N+](C)(C)CCS(=O)(=O)c1ccc(Cl)cc1
inactive: [18] 90 % of control

CS(=O)(=O)Oc1c(Cl)cc(S(=O)(=O)F)cc1Cl
inactive: [14] 104 % of control | [15] 102 % of control

Clc1ccccc1C(N1CCCCC1)N1CCCCC1
inactive: [18] 88 % of control | endpoint: mean survival time, dose: 200.0 mg/kg/injection, schedule: Q04DX002 (ip), vehicle: saline 92 % of control | endpoint: mean survival time, dose: 400.0 mg/kg/injection, schedule: Q04DX002 (ip), vehicle: saline 95 % of control

COC(=O)NS(=O)(=O)c1cccn1C
inactive: endpoint: mean survival time, dose: 100.0 mg/kg/injection, schedule: Q01DX001 (ip), vehicle: Klucel (hydroxypropylcellulose) (HPC) 106 % of control | endpoint: mean survival time, dose: 100.0 mg/kg/injection, schedule: Q04DX003 (ip), vehicle: Klucel (hydroxypropylcellulose) (HPC) 106 % of control | endpoint: mean survival time, dose: 200.0 mg/kg/injection, schedule: Q01DX001 (ip), vehicle: Klucel (hydroxypropylcellulose) (HPC) 104 % of control | endpoint: mean survival time, dose: 200.0 mg/kg/injection, schedule: Q04DX003 (ip), vehicle: Klucel (hydroxypropylcellulose) (HPC) 100 % of control | endpoint: mean survival time, dose: 400.0 mg/kg/injection, schedule: Q01DX001 (ip), vehicle: Klucel (hydroxypropylcellulose) (HPC) 104 % of control | endpoint: mean survival time, dose: 400.0 mg/kg/injection, schedule: Q04DX003 (ip), vehicle: Klucel (hydroxypropylcellulose) (HPC) 95 % of control

NN=C1CCC(=NN)CC1
inactive: endpoint: mean survival time, dose: 25.0 mg/kg/injection, schedule: Q01DX009 (ip), vehicle: water 101 % of control | endpoint: mean survival time, dose: 25.0 mg/kg/injection, schedule: Q04DX003 (ip), vehicle: water 109 % of control | endpoint: mean survival time, dose: 50.0 mg/kg/injection, schedule: Q01DX009 (ip), vehicle: water 114 % of control | endpoint: mean survival time, dose: 50.0 mg/kg/injection, schedule: Q04DX003 (ip), vehicle: water 109 % of control | endpoint: mean survival time, dose: 100.0 mg/kg/injection, schedule: Q04DX003 (ip), vehicle: water 114 % of control and 124 % of control

FC(F)(F)C(Cl)(c1ccc(Cl)cc1)c1ccc(Cl)cc1
inactive: endpoint: mean survival time, dose: 100.0 mg/kg/injection, schedule: Q04DX003 (sc), vehicle: olive oil, sesame oil, peanut oil 102 % of control | endpoint: mean survival time, dose: 400.0 mg/kg/injection, schedule: Q04DX003 (sc), vehicle: olive oil, sesame oil, peanut oil 100 % of control

CN1CCC2CCCCC2C1Cc1ccc(CC2C3CCCCC3CCN2C)cc1 (centres undefined)
inactive: endpoint: mean survival time, dose: 2.5 mg/kg/injection, schedule: Q01DX001 (ip), vehicle: carboxymethylcellulose (CMC) 96 % of control | endpoint: mean survival time, dose: 5.0 mg/kg/injection, schedule: Q01DX001 (ip), vehicle: carboxymethylcellulose (CMC) 96 % of control

From PubChem BioAssay AID248 (DTP/NCI, 2004)
